Values quoted from earlier work as cited in article PMC3534868 (Pharmaceutical biology, 2011).
Like-named read-outs stand apart in the source and are kept apart here.

Tests used:
[1] = test system: KB (human oral epidermoid carcinoma); conditions: KB cells; for KB IC50: ref Zhang et al., 2004
HUVEC = HUVEC cells; ref Zhang et al., 2004
Col-2 = Col-2 cells; ref Zhang et al., 2004
hTERT = hTERT cells; ref Zhang et al., 2004
LNCaP (prostate) = conditions: LNCaP cells; ref Zhang et al., 2004
LU-1 (lung) = conditions: LU-1 cells; ref Zhang et al., 2004
[2] = test system: malaria parasite (chloroquine-sensitive and chloroquine-resistant strains); conditions: for in vitro activities against the malaria parasites: 2005

C[C@H]1[C@H](C)CC[C@]2(C(=O)O)CC[C@]3(C)C(=CC[C@@H]4[C@@]5(C)CC[C@@H](O)[C@@](C)(CO)[C@@H]5CC[C@]43C)[C@H]12 [SLA7018-K008, 3α,23-Dihydroxy-urs-12-en-28-oic acid]
W2 IC50 (P. falciparum W2; ref He et al., 2005): 6.006 ± 2.581 µg/mL
KB ED50 ([1]; ref He et al., 2005): >20 µg/mL
D6 IC50 (P. falciparum D6; ref He et al., 2005): 4.567 ± 0.702 µg/mL

C[C@H]1CC[C@@]2(OC1)O[C@H]1C[C@H]3[C@@H]4CC[C@@H]5C[C@@H](O[C@@H]6O[C@H](CO[C@@H]7OC[C@H](O)[C@H](O)[C@H]7O)[C@@H](O[C@@H]7OC[C@H](O)[C@H](O)[C@H]7O)[C@H](O)[C@H]6O[C@@H]6O[C@H](CO)[C@@H](O)[C@H](O)[C@H]6O)CC[C@]5(C)[C@H]4CC[C@]3(C)[C@H]1[C@@H]2C [SLA7037-K003, Asparacoside]
HUVEC IC50 (HUVEC): 4.1 µg/mL
KB IC50 [1]: 4.8 µg/mL
Col-2 IC50 (Col-2): 5.4 µg/mL
hTERT IC50 (hTERT): 4.3 µg/mL
LNCaP IC50 (LNCaP (prostate)): 10.1 µg/mL
LU-1 IC50 (LU-1 (lung)): 4.2 µg/mL

C=C(C)[C@@H]1CC[C@]2(C(=O)O)CC[C@]3(C)[C@H](CC[C@@H]4[C@@]5(C)CC[C@H](OC(=O)/C=C/c6ccc(OC(C)=O)c(OC(C)=O)c6)C(C)(C)[C@@H]5CC[C@]43C)[C@@H]12 [SLA7062-K001b, Betulinic acid 3β-bisacetylcaffeate]
W2 IC50 (P. falciparum W2; ref Ma et al., 2008): 0.443 µg/mL
KB ED50 ([1]; ref Ma et al., 2008): 2.07 µg/mL
D6 IC50 (P. falciparum D6; ref Ma et al., 2008): 0.48 µg/mL

Naucleaorine [SLA7018-K006]
in vitro activities against the malaria parasites ([2]; ref He et al.): showed in vitro activities
W2 IC50 (P. falciparum W2; ref He et al., 2005): 4.192 ± 0.008 µg/mL
KB ED50 ([1]; ref He et al., 2005): 20 µg/mL
D6 IC50 (P. falciparum D6; ref He et al., 2005): 3.61 ± 0.595 µg/mL

C[C@@H]1CC[C@@]2(OC1)O[C@H]1C[C@H]3[C@@H]4CCC5=CC(=O)CC[C@]5(C)[C@H]4C[C@@H](O)[C@]3(C)[C@@]1(O)[C@@H]2C [SLA7037-K001, Asparacosin A]
HUVEC IC50 (HUVEC): >20 µg/mL
KB IC50 [1]: 10.7 µg/mL
Col-2 IC50 (Col-2): >20 µg/mL
hTERT IC50 (hTERT): >20 µg/mL
LNCaP IC50 (LNCaP (prostate)): >20 µg/mL
LU-1 IC50 (LU-1 (lung)): >20 µg/mL

3″-Hydroxy-4″-methoxy-4″-dehyroxy-nyasol [SLA7037-K007]
HUVEC IC50 (HUVEC): 16.4 µg/mL
KB IC50 [1]: 9.0 µg/mL
Col-2 IC50 (Col-2): 11.7 µg/mL
hTERT IC50 (hTERT): 0.2 µg/mL
LNCaP IC50 (LNCaP (prostate)): 11.6 µg/mL
LU-1 IC50 (LU-1 (lung)): 7.2 µg/mL

COc1cc(OCC=CC#Cc2ccc(O)cc2)ccc1O [SLA7037-K004, 3′-Methoxy-asparenydiol]
HUVEC IC50 (HUVEC): >20 µg/mL
KB IC50 [1]: 12.0 µg/mL
Col-2 IC50 (Col-2): >20 µg/mL
hTERT IC50 (hTERT): 0.3 µg/mL
LNCaP IC50 (LNCaP (prostate)): >20 µg/mL
LU-1 IC50 (LU-1 (lung)): 19.7 µg/mL

Pinoresinol [SLA7062-K004]
W2 IC50 (P. falciparum W2; ref Ma et al., 2008): 3.15 µg/mL
KB ED50 ([1]; ref Ma et al., 2008): >40 µg/mL
D6 IC50 (P. falciparum D6; ref Ma et al., 2008): 1.361 µg/mL

epi-Methoxy-naucleaorine [SLA7018-K002]
in vitro activities against the malaria parasites ([2]; ref He et al.): showed in vitro activities
W2 IC50 (P. falciparum W2; ref He et al., 2005): 6.979 ± 0.008 µg/mL
KB ED50 ([1]; ref He et al., 2005): >20 µg/mL
D6 IC50 (P. falciparum D6; ref He et al., 2005): 6.535 ± 0.151 µg/mL

C=C(C)[C@@H]1CC[C@]2(C(=O)O)CC[C@]3(C)[C@H](CC[C@@H]4[C@@]5(C)CC[C@H](OC(=O)/C=C/c6ccc(O)c(O)c6)C(C)(C)[C@@H]5CC[C@]43C)[C@@H]12 [SLA7062-K001, Betulinic acid 3β-caffeate]
in vitro antimalarial activity ([2]; chloroquine-sensitive and chloroquine-resistant strains, ref Ma et al., 2008): in vitro-active
W2 IC50 (P. falciparum W2; ref Ma et al., 2008): 0.607 µg/mL
KB ED50 ([1]; ref Ma et al., 2008): 2.5 µg/mL
D6 IC50 (P. falciparum D6; ref Ma et al., 2008): 0.87 µg/mL

Rouremin [SLA7006-K005]
in vitro antimalarial activity ([2]; ref He et al., 2006): in vitro-active
W2 IC50 (P. falciparum W2; ref He et al., 2006): 3.5 µg/mL
KB ED50 ([1]; ref He et al., 2006): >20 µg/mL
D6 IC50 (P. falciparum D6; ref He et al., 2006): 4 µg/mL

Oc1ccc(C#C/C=C/COc2ccc(O)cc2)cc1 [SLA7037-K010, Asparenydiol]
HUVEC IC50 (HUVEC): >20 µg/mL
KB IC50 [1]: 2.4 µg/mL
Col-2 IC50 (Col-2): >20 µg/mL
hTERT IC50 (hTERT): 0.2 µg/mL
LNCaP IC50 (LNCaP (prostate)): >20 µg/mL
LU-1 IC50 (LU-1 (lung)): 19.8 µg/mL

Gongroneside A [SLA7530-K001]
in vitro antimalarial activity ([2]; both strains of the malaria parasites, ref Libman et al., 2008): in vitro-active
W2 IC50 (P. falciparum W2; ref Libman et al., 2008): 2.02 µg/mL
KB ED50 ([1]; ref Libman et al., 2008): >20 µg/mL
D6 IC50 (P. falciparum D6; ref Libman et al., 2008): 2.33 µg/mL

COc1cc([C@H](O[C@@H]2O[C@H](CO)[C@@H](O)[C@H](O)[C@H]2O)[C@H](CO)Oc2c(OC)cc(CCCO)cc2OC)ccc1O [SLA7006-K008, Rourinoside]
in vitro antimalarial activity ([2]; ref He et al., 2006): in vitro-active
W2 IC50 (P. falciparum W2; ref He et al., 2006): 1.2 µg/mL
KB ED50 ([1]; ref He et al., 2006): >20 µg/mL
D6 IC50 (P. falciparum D6; ref He et al., 2006): 2.1 µg/mL

C=CC(/C=C\c1ccc(O)cc1)c1ccc(O)c(OC)c1 (stereo not drawn) [SLA7037-K006, 3″-Methoxy-nyasol]
HUVEC IC50 (HUVEC): 6.7 µg/mL
KB IC50 [1]: 9.0 µg/mL
Col-2 IC50 (Col-2): 6.3 µg/mL
hTERT IC50 (hTERT): 1.2 µg/mL
LNCaP IC50 (LNCaP (prostate)): 6.6 µg/mL
LU-1 IC50 (LU-1 (lung)): 4.5 µg/mL

C=C(C)[C@@H]1CC[C@]2(C(=O)O)CC[C@]3(C)[C@H](CC[C@@H]4[C@@]5(C)CC[C@H](O)C(C)(C)[C@@H]5CC[C@]43C)[C@@H]12 [SLA7062-K001a, Betulinic acid]
W2 IC50 (P. falciparum W2; ref Ma et al., 2008): 3.776 µg/mL
KB ED50 ([1]; ref Ma et al., 2008): >40 µg/mL
D6 IC50 (P. falciparum D6; ref Ma et al., 2008): 3.696 µg/mL

CC1(C)CC[C@]2(C(=O)O)CC[C@]3(C)C(=CC[C@@H]4[C@@]5(C)CC[C@H](O)C(C)(C)[C@@H]5CC[C@]43C)[C@@H]2C1 [SLA7018-K003, Oleanolic acid]
W2 IC50 (P. falciparum W2; ref He et al., 2005): 2.335 ± 0.013 µg/mL
KB ED50 ([1]; ref He et al., 2005): 21 µg/mL
D6 IC50 (P. falciparum D6; ref He et al., 2005): 2.116 ± 0.308 µg/mL
